Test results from PMC11396667, “Design, Synthesis, and Anticancer and Antibacterial Activities of Quinoline-5-Sulfonamides” (Molecules, 2024).
Converted amounts (≈) assume the structure as drawn.

Legend:
Type in all cases: cell-based
[1] = test system: vancomycin-resistant E. faecalis VRE 725B; assay: MIC, microtitration broth method, VRE3; conditions: Enterococcus faecalis, 24 h, 37 °C, BHI broth
Excerpt: (§1) Since there is a general decrease in immunity during the treatment of oncological patients, i.e., patients are more susceptible to infectious diseases, it is advantageous if anticancer agents show antimicrobial properties at the same time. Therefore, the effects of the compounds were also investigated against Gram-positive bacteria. For this purpose, the susceptible collection strains of aerobic Staphylococcus aureus ATCC 29213 and facultatively aerobic Enterococcus faecalis ATCC 29212 and resistant clinical isolates of methicillin-resistant S. aureus (MRSA) SA 3202, SA 630 carrying the mecA gene, and vancomycin-resistant isolates of E. faecalis (VRE) 342B, 368, and 725B carrying the vanA gene were selected. Thus, the selection of the studied bacterial strains was adopted following the CLSI ([…]) international reference methodologies.
(§2) The in vitro antibacterial activity of the synthesized compounds was evaluated against representatives of multidrug-resistant bacteria, […] clinical isolates of methicillin-resistant S. aureus: clinical isolates of human origin, MRSA SA 3202, and MRSA SA 630 (National Institute of Public Health, Prague, Czech Republic), carrying the mecA gene. These two clinical isolates were classified as vancomycin-susceptible (but with a higher MIC of vancomycin equal to 2 μg/mL (VA2-MRSA). Vancomycin- and methicillin-susceptible S. aureus ATCC 29213 and vancomycin-susceptible Enterococcus faecalis ATCC 29212, obtained from the American Type Culture Collection, were used as the reference and quality control strains. Three vanA gene-carrying vancomycin-resistant isolates of E. faecalis (VRE 342B, VRE 368, VRE 725B) (Department of Infectious Diseases and Microbiology, Faculty of Veterinary Medicine, University of Veterinary Sciences Brno, Czech Republic) were provided by Oravcova et al..
(§3) The minimum inhibitory concentrations (MICs) were evaluated by the microtitration broth method according to the CLSI, with some modifications. The compounds were dissolved in DMSO (Sigma, St. Louis, MO, USA) to obtain a concentration of […] and diluted in a microtitration plate in an appropriate medium, i.e., Cation-Adjusted Mueller–Hinton Broth (CaMH, Oxoid, Basingstoke, UK) for staphylococci, and Brain Heart Infusion Broth (BHI, Oxoid) for enterococci to reach the final concentration of 256–0.125 µg/mL. Microtiter plates were inoculated with test microorganisms so that the final concentration of bacterial cells was 10^5. Ampicillin, oxacillin, and ciprofloxacin (Sigma) were used as reference drugs. A drug-free control and a sterility control were included. The plates were incubated for 24 h at 37 °C for staphylococci and enterococci. […] The experiments were repeated three times.

[2] = test system: methicillin-resistant S. aureus SA 3202; assay: MIC, microtitration broth method, MRSA1; conditions: Staphylococcus aureus; 24 h, 37 °C, CaMH broth
Excerpt: as §1, §2, §3

[3] = test system: Enterococcus faecalis ATCC 29212; assay: MIC, microtitration broth method, EF; conditions: ATCC29212, 24 h, 37 °C, BHI broth
Excerpt: as §1, §2, §3

[4] = test system: A549 (human lung adenocarcinoma) cells; assay: WST-1 cell viability assay, A549; conditions: Homo sapiens, A549; WST-1, 72 h exposure, ± SD, n = 6
Protocol: (§4) The synthesized compounds were tested using three cancer cell lines—human amelanotic melanoma (C-32), human breast adenocarcinoma (MDA-MB-231), and human lung adenocarcinoma (A549)—and, for comparison, normal human dermal fibroblasts (HFF-1). The WST-1 (water-soluble tetrazole salt) assay was used to evaluate the effect of the synthesized compounds on the viability of cultured cells.
(§5) Compounds were evaluated for their antiproliferative activity using three cultured cell lines: C-32 (human amelanotic melanoma, ATCC, Manassas, VA, USA), A549 (human lung adenocarcinoma, ATCC, Manassas, VA, USA), MDA-MB-231 (human breast adenocarcinoma derived from metastatic site: pleural effusion, ATCC, Manassas, VA, USA), together with HFF-1 (normal human dermal fibroblasts, ATCC, Manassas, VA, USA). The cultured cells were kept at 37 °C and 5% CO2.
(§6) Cells were seeded in 96-well plates at 5000/well in 100 μL of medium. After 24 h of incubation, the medium was replaced with a new one with the addition of the test substance. After 72 h, the following tests were performed: with crystal violet (determination of the number of adherent cells in the culture), the WST-1 test (determination of the relative number of living cells and their metabolic activity), and the LDH test (determination of the relative number of dead cells in cultures—cytotoxicity of the tested substance).
(§7) WST-1 test: The WST-1 test (Roche Diagnostics, Mannheim, Germany) allows one to determine the relative number of cells in cultures. Absorbance is directly proportional to the number of cells and their metabolic activity. The absorbance measurement is performed at λ = 450 nm (reference wave 600 nm).

[5] = test system: methicillin-resistant S. aureus SA 630; assay: MBC, agar aliquot subculture method, MRSA2; conditions: Staphylococcus aureus; 99.9% decrease in CFU, 24 h, 37 °C
Excerpt: (§8) The activities of the individual derivatives were expressed as minimum inhibitory concentrations (MICs) and minimum bactericidal concentrations (MBCs) and are shown in Table 3 together with the values of the antibiotics used as standards for comparison. […] MBC values of bactericidal compounds are indicated in bold in Table 3.
(§9) For the above-mentioned strains/isolates, the agar aliquot subculture method was used as a test for bactericidal agents. After the MIC value determination, the inoculum was transferred to CaMH (Oxoid) for staphylococci, and BHI (Oxoid) for enterococci medium using a multipoint inoculator. The plates were incubated in a thermostat at 37 °C for 24 h. The lowest concentration of test compound at which ≤5 colonies were obtained was then evaluated as MBC, corresponding to a 99.9% decrease in CFU relative to the original inoculum.

[6] = test system: Enterococcus faecalis ATCC 29212; assay: MBC, agar aliquot subculture method, EF; conditions: ATCC29212, 99.9% decrease in CFU, 24 h, 37 °C
Excerpt: as §8, §9

[7] = test system: C-32 (human amelanotic melanoma) cells; assay: WST-1 cell viability assay, C-32; conditions: Homo sapiens; WST-1, 72 h exposure, ± SD, n = 6
Protocol: as §4, §5, §6, §7

[8] = test system: Staphylococcus aureus ATCC 29213; assay: MIC, microtitration broth method, SA; conditions: ATCC29213, 24 h, 37 °C, CaMH broth
Excerpt: as §1, §2, §3

[9] = test system: vancomycin-resistant E. faecalis VRE 368; assay: MIC, microtitration broth method, VRE2; conditions: Enterococcus faecalis, 24 h, 37 °C, BHI broth
Excerpt: as §1, §2, §3

[10] = test system: HFF-1 (normal human dermal fibroblasts); assay: WST-1 cell viability assay, normal HFF-1; conditions: HFF-1, WST-1, 72 h exposure, ± SD, n = 6
Protocol: as §4, §5, §6, §7

[11] = test system: methicillin-resistant S. aureus SA 630; assay: MIC, microtitration broth method, MRSA2; conditions: Staphylococcus aureus; 24 h, 37 °C, CaMH broth
Excerpt: as §1, §2, §3

[12] = test system: Staphylococcus aureus ATCC 29213; assay: MBC, agar aliquot subculture method, SA; conditions: ATCC29213, 99.9% decrease in CFU, 24 h, 37 °C
Excerpt: as §8, §9

Compound	MIC [1]	MIC [2]	MIC [3]	IC50 [4]	IC50 [7]	MIC [8]	MIC [9]	MIC [11]	MBC [5]	MBC [6]	IC50 [10]	MBC [12]
C#CCNS(=O)(=O)c1ccc(O)c2ncccc12 [3a, 8-Hydroxy-N-(prop-2-yn-1-yl)quinoline-5-sulfonamide]	977 µM (≈ 256 µg/mL)	122 µM (≈ 32 µg/mL)	977 µM (≈ 256 µg/mL)	23.1 ± 0.7 µM	19.8 ± 1.1 µM	122 µM (≈ 32 µg/mL)	977 µM (≈ 256 µg/mL)	244 µM (≈ 64 µg/mL)	244 µM (≈ 64 µg/mL)	> 977 µM	> 100 µM	122 µM (≈ 32 µg/mL)
C#CCN(C)S(=O)(=O)c1ccc(O)c2ncccc12 [3c, 8-Hydroxy-N-methyl-N-(prop-2-yn-1-yl)quinoline-5-sulfonamide]	464 µM (≈ 128 µg/mL)	29 µM (≈ 8.01 µg/mL)	464 µM (≈ 128 µg/mL)	13.9 ± 0.6 µM	9.8 ± 0.6 µM	29 µM (≈ 8.01 µg/mL)	464 µM (≈ 128 µg/mL)	29 µM (≈ 8.01 µg/mL)	29 µM (≈ 8.01 µg/mL)	> 464 µM	> 100 µM	29 µM (≈ 8.01 µg/mL)
C#CCOc1ccc(NS(=O)(=O)c2ccc(O)c3ncccc23)cc1 [3d, 8-Hydroxy-N-[4-(prop-2-yn-1-yloxy)phenyl]quinoline-5-sulfonamide]	362 µM (≈ 128 µg/mL)	45.2 µM (≈ 16 µg/mL)	362 µM (≈ 128 µg/mL)	12.9 ± 1.1 µM	10.4 ± 0.5 µM	45.2 µM (≈ 16 µg/mL)	362 µM (≈ 128 µg/mL)	90.4 µM (≈ 32 µg/mL)	90.4 µM (≈ 32 µg/mL)	362 µM (≈ 128 µg/mL)	> 100 µM	45.2 µM (≈ 16 µg/mL)
C#CCOc1cccc(NS(=O)(=O)c2ccc(O)c3ncccc23)c1 [3e, 8-Hydroxy-N-[3-(prop-2-yn-1-yloxy)phenyl]quinoline-5-sulfonamide]	362 µM (≈ 128 µg/mL)	45.2 µM (≈ 16 µg/mL)	362 µM (≈ 128 µg/mL)	11.5 ± 0.7 µM	8.6 ± 0.9 µM	45.2 µM (≈ 16 µg/mL)	362 µM (≈ 128 µg/mL)	90.4 µM (≈ 32 µg/mL)	90.4 µM (≈ 32 µg/mL)	362 µM (≈ 128 µg/mL)	> 100 µM	45.2 µM (≈ 16 µg/mL)

The remaining molecules from weak to strong by MIC [1], led by results:

MIC [1]	MIC [2]	MIC [3]	IC50 [4]	IC50 [7]	MIC [8]	MIC [9]	MIC [11]	Compound	MBC [5]	MBC [6]	IC50 [10]	MBC [12]
883 µM (≈ 256 µg/mL)	55.2 µM (≈ 16 µg/mL)	883 µM (≈ 256 µg/mL)	17.2 ± 1.5 µM	22.1 ± 1.5 µM	55.2 µM (≈ 16 µg/mL)	883 µM (≈ 256 µg/mL)	110 µM (≈ 31.9 µg/mL)	C#CC(C)(C)NS(=O)(=O)c1ccc(O)c2ncccc12 [3b, 8-Hydroxy-N-(1,1-dimethylprop-2-yn-1-yl)quinoline-5-sulfonamide]	110 µM (≈ 31.9 µg/mL)	> 883 µM	> 100 µM	110 µM (≈ 31.9 µg/mL)
362 µM (≈ 128 µg/mL)	45.2 µM (≈ 16 µg/mL)	362 µM (≈ 128 µg/mL)	19.1 ± 0.8 µM	29.6 ± 2.6 µM	45.2 µM (≈ 16 µg/mL)	362 µM (≈ 128 µg/mL)	90.4 µM (≈ 32 µg/mL)	C#CCOc1ccccc1NS(=O)(=O)c1ccc(O)c2ncccc12 [3f, 8-Hydroxy-N-[2-(prop-2-yn-1-yloxy)phenyl]quinoline-5-sulfonamide]	90.4 µM (≈ 32 µg/mL)	362 µM (≈ 128 µg/mL)	28.1 ± 2.2 µM	45.2 µM (≈ 16 µg/mL)
